Data published in patent US9510598B2, “Nitrogen-containing heterocyclic compounds for plant disease control” (BAYER CROPSCIENCE AG, priority 2012, dated 2016).
Like-named read-outs stand apart in the source and are kept apart here.

Assays:
[1] = format: physicochemical; conditions: linear gradient 10% to 95% acetonitrile
Septoria tritici = assay: In vivo preventive test on Septoria tritici (leaf spot on wheat); conditions: 500 ppm; wheat plants sprayed 24 hours before contamination; grading 21 to 28 days after contamination vs control plants
Protocol: Wheat plants (“Scipion” variety), sown in starter cups on a 50/50 peat soil-pozzolana substrate and grown at 22° C. (12 h)/20° C. (12 h), are treated at the 1-leaf stage (10 cm height) by spraying with the active ingredient prepared as described above. Plants, used as controls, are treated with the mixture of acetone/tween/DMSO/water not containing the active material. After 24 hours, the plants are contaminated by spraying the leaves with an aqueous suspension of cryopreserved Septoria tritici spores (500 000 spores per ml). […] Grading (% of efficacy) is carried out 21 to 28 days after the contamination, in comparison with the control plants.

[2] = method [a]: HPLC/LC-MS on reversed phase at pH 2.7, 0.1% formic acid in water / acetonitrile
[3] = HPLC on reversed phase columns, method [a]: pH 2.7, 0.1% formic acid in water / acetonitrile

Compound	log P [1, 2]	log P [1, 3]	% of efficacy (protection) (Septoria tritici) [%]
CCn1cc(CNC(=O)C2(CBr)CC(c3ccc4ncc(Br)cc4c3)=NO2)c(C)n1 (stereo not shown) [compound 137]	2.62^[a]	–	93
CCn1cc(CNC(=O)C2(CCl)CC(c3ccc4ncc(Br)cc4c3)=NO2)c(C)n1 (stereo not shown) [compound 138]	2.56^[a]	–	93
CCn1cc(CNC(=O)C2(C)CC(c3ccc4ncc(C#C[Si](C)(C)C)cc4c3)=NO2)c(C)n1 (stereo not shown) [compound 149]	3.79^[a]	–	93
Cc1ccc(CNC(=O)C2(C)CC(c3ccc4ncc(Br)cc4c3)=NO2)n1C (stereo not shown) [compound 152]	3.21^[a]	–	71
C#Cc1cnc2ccc(C3=NOC(C)(C(=O)NCc4ccc(C)n4C)C3)cc2c1 (stereo not shown) [compound 153]	2.88^[a]	–	71
C#Cc1cnc2ccc(C3=NOC(C)(C(=O)NCc4ccc(Cl)nc4)C3)cc2c1 (stereo not shown) [compound 160]	2.44^[a]	–	71
Cc1nn(C(C)C)c(C)c1CNC(=O)C1(C)CC(c2ccc3ncc(Br)cc3c2)=NO1 (stereo not shown) [compound 184]	2.6^[a]	–	71
C#Cc1cnc2ccc(C3=NOC(C)(C(=O)NCc4cnn(-c5ccccc5)n4)C3)cc2c1 (stereo not shown) [compound 189]	3.11^[a]	–	71
CC1(C(=O)NCc2cn[nH]c2-c2cccs2)CC(c2ccc3ncc(Br)cc3c2)=NO1 (stereo not shown) [compound 191]	2.51^[a]	–	71
C#Cc1cnc2ccc(C3=NOC(C)(C(=O)NCc4cn[nH]c4-c4cccs4)C3)cc2c1 (stereo not shown) [compound 192]	2.25^[a]	–	71
C#Cc1cnc2ccc(C3=NOC(C)(C(=O)NCC4CCC(=O)N4C)C3)cc2c1 (stereo not shown) [compound 213]	1.65^[a]	–	97
C#Cc1cnc2ccc(C3=NOC(C)(C(=O)NCC4CCCOC4c4ccccc4)C3)cc2c1 (stereo not shown) [compound 222]	3.11^[a]	–	71
C#Cc1cnc2ccc(C3=NOC(C)(C(=O)NCC4CCOc5ccccc54)C3)cc2c1 (stereo not shown) [compound 223]	3.11^[a]	–	71
CC1(C(=O)NCc2ccc3ncsc3c2)CC(c2ccc3ncc(Br)cc3c2)=NO1 (stereo not shown) [compound 243]	–	2.7^[a]	71
CCn1cc(CNC(=O)C2(F)CC(c3ccc4ncc(Br)cc4c3)=NO2)c(C)n1 (stereo not shown) [compound 279]	–	2.38[a]	75
CCn1cc(CNC(=O)C2(C)CC(c3ccc4nc(Cl)c(Br)cc4c3)=NO2)c(C)n1 (stereo not shown) [compound 286]	–	3.12[a]	92
CC1(C(=O)NC2CCOCC2)CC(c2ccc3ncc(Br)cc3c2)=NO1 (stereo not shown) [compound 307]	–	2.27[a]	100
CCC(NC(=O)C1(C)CC(c2ccc3ncc(Br)cc3c2)=NO1)c1cn(CC)nc1C (stereo not shown) [compound 311]	–	2.77[a]	100
C#Cc1cnc2ccc(C3=NOC(C)(C(=O)NC(C)c4cccc5ccccc45)C3)cc2c1 (stereo not shown) [compound 339]	–	3.85[a]	78
C#Cc1cnc2ccc(C3=NOC(C)(C(=O)NC(CC)c4cn(CC)nc4C)C3)cc2c1 (stereo not shown) [compound 347]	–	2.52[a]	100
C#Cc1cnc2ccc(C3=NOC(C)(C(=O)NC(C)c4ccccc4Cl)C3)cc2c1 (stereo not shown) [compound 349]	–	3.42[a]	94
C#Cc1cnc2ccc(C3=NOC(C)(C(=O)NC(C)c4ccccc4)C3)cc2c1 (stereo not shown) [compound 350]	–	3.06[a]	100
C#Cc1cnc2ccc(C3=NOC(C)(C(=O)NC(c4cccc(Cl)c4)C(F)(F)F)C3)cc2c1 (stereo not shown) [compound 357]	–	3.94[a]	78

Second part, led by results:

log P [1, 2]	log P [1, 3]	Compound	% of efficacy (protection) (Septoria tritici) [%]
1.44^[a]	–	CC(C)NC(=O)C1(C)CC(c2ccc3ncccc3c2)=NO1 (stereo not shown) [compound 143]	71
–	3.46[a]	CC(C)NC(=O)C1(C)CC(c2ccc3nc(Cl)c(Br)cc3c2)=NO1 (stereo not shown) [compound 287]	83
–	2.39[a]	COC(CNC(=O)C1(C)CC(c2ccc3ncc(Br)cc3c2)=NO1)OC (stereo not shown) [compound 290]	96
–	3.46[a]	CC(NC(=O)C1(C)CC(c2ccc3ncc(Br)cc3c2)=NO1)c1ccccc1 (stereo not shown) [compound 292]	96
–	3.85[a]	CC(NC(=O)C1(C)CC(c2ccc3ncc(Br)cc3c2)=NO1)c1ccccc1Cl (stereo not shown) [compound 294]	70
–	3.35[a]	CC(NC(=O)C1(C)CC(c2ccc3ncc(Br)cc3c2)=NO1)c1ccsc1 (stereo not shown) [compound 295]	80
–	2.20[a]	C=Cc1cnc2ccc(C3=NOC(C)(C(=O)NC(C)C)C3)cc2c1 (stereo not shown) [compound 304]	100
–	2.56[a]	CC(NC(=O)C1(C)CC(c2ccc3ncc(Br)cc3c2)=NO1)c1nccs1 (stereo not shown) [compound 310]	100
–	3.00[a]	C#Cc1cnc2ccc(C3=NOC(C)(C(=O)NC(C)(C)C)C3)cc2c1 (stereo not shown) [compound 322]	98
–	2.94[a]	C#Cc1cnc2ccc(C3=NOC(C)(C(=O)NC(C)c4nc(C(C)C)no4)C3)cc2c1 (stereo not shown) [compound 329]	100
–	2.78[a]	C#Cc1cnc2ccc(C3=NOC(C)(C(=O)NC(C)C4CC4)C3)cc2c1 (stereo not shown) [compound 330]	100
–	3.23[a]	CC(C)c1noc(C(C)NC(=O)C2(C)CC(c3ccc4ncc(Br)cc4c3)=NO2)n1 (stereo not shown) [compound 331]	83
–	2.20[a]	C#Cc1cnc2ccc(C3=NOC(C)(C(=O)NC(C)c4sc(C)nc4C)C3)cc2c1 (stereo not shown) [compound 333]	98
–	1.28[a]	C#Cc1cnc2ccc(C3=NOC(C)(C(=O)NC(C)c4ccncc4)C3)cc2c1 (stereo not shown) [compound 335]	78
–	2.52[a]	C#CCCNC(=O)C1(C)CC(c2ccc3ncc(Br)cc3c2)=NO1 (stereo not shown) [compound 353]	94
